Results published in patent publication US5162305.
Where two headings read alike, the source gives them in different places.

How the values were obtained:
[1] = amide bond, pyridine/DMF
[2] = the molecule shown is the open-chain precursor; amide bond; 20-membered ring; ONp active ester (from TFA-ONp)/pyridine; pyridine/DMF; 5.2 mM; 50.0 °C; 3 steps

Molecule: H-Gly-Ser(Bzl)-Asn-Leu-Ser(Bzl)-Thr(Bzl)-Glu(ONp)-OBzl?
- ring closure, isolated yield ([1]; the molecule shown is the open-chain precursor, 23-membered ring, p-nitrophenyl ester (from TFA-ONp)/pyridine, 1.2 mM, 50.0 °C, 3 steps): 50.7%

Molecule: COC(=O)[C@@H]1CSCC(=O)N[C@@H](COCc2ccccc2)C(=O)N[C@@H](CC(N)=O)C(=O)N[C@@H](CC(C)C)C(=O)N[C@@H](COCc2ccccc2)C(=O)N[C@@H]([C@@H](C)OCc2ccccc2)C(=O)N1 [H-Ser(Bzl)-Asn-Leu-Ser(Bzl)-Thr(Bzl)-Cmc(ONp)-OMe]
- ring closure, isolated yield ([1]; from H-Ser(Bzl)-Asn-Leu-Ser(Bzl)-Thr(Bzl)-Cmc(ONp)-OMe, 21-membered ring, TFA-ONp/pyridine, TFA, pyridine, 55.0 °C, 3 steps): 41%

Molecule: CCOC(=O)[C@@H]1CC(=O)NCCCCCC(=O)N[C@@H](CC(N)=O)C(=O)N[C@@H](CC(C)C)C(=O)N[C@@H](COCc2ccccc2)C(=O)N[C@@H]([C@@H](C)OCc2ccccc2)C(=O)N1 [H-Acp-Asn-Leu-Ser(Bzl)-Thr(Bzl)-Asp(ONp)-OEt]
- ring closure, isolated yield ([1]; from H-Acp-Asn-Leu-Ser(Bzl)-Thr(Bzl)-Asp(ONp)-OEt, 23-membered ring, TFA-ONp/pyridine, TFA, pyridine, 55.0 °C, 3 steps): 26.6%

Molecule: CCOC(=O)[C@@H]1CC(=O)NCC(=O)N[C@@H](COCc2ccccc2)C(=O)N[C@@H](CC(N)=O)C(=O)N[C@@H](CC(C)C)C(=O)N[C@@H](COCc2ccccc2)C(=O)N[C@@H]([C@@H](C)OCc2ccccc2)C(=O)N1 [H-Gly-Ser(Bzl)-Asn-Leu-Ser(Bzl)-Thr(Bzl)-Asp(ONp)-OEt]
- ring closure, isolated yield ([1]; from H-Gly-Ser(Bzl)-Asn-Leu-Ser(Bzl)-Thr(Bzl)-Asp(ONp)-OEt, 22-membered ring, TFA-ONp/pyridine, TFA, pyridine, 55.0 °C, 3 steps): 61.3%

Molecule: H-Ser(Bzl)-Asn-Leu-Ser(Bzl)-Thr(Bzl)-Tyr(CH2CO-ONp)-OMe
- ring closure, isolated yield ([1]; the molecule shown is the open-chain precursor, 25-membered ring, TFA-ONp/pyridine, TFA, pyridine, then N2H4, 55.0 °C, 4 steps): 43.8%

Molecule: COC(=O)[C@@H]1CCC(=O)NCCCCCC(=O)N[C@@H](CC(N)=O)C(=O)N[C@@H](CC(C)C)C(=O)N[C@@H](COCc2ccccc2)C(=O)N[C@@H]([C@@H](C)OCc2ccccc2)C(=O)N1 [H-Acp-Asn-Leu-Ser(Bzl)-Thr(Bzl)-Glu(ONp)-OMe]
- ring closure, isolated yield ([1]; from H-Acp-Asn-Leu-Ser(Bzl)-Thr(Bzl)-Glu(ONp)-OMe, 24-membered ring, TFA-ONp/pyridine, TFA, pyridine, 55.0 °C, 3 steps): 45.9%

Molecule: H-Ser(Bzl)-Asn-Leu-Ser(Bzl)-Thr(Bzl)-Glu(ONp)-OBzl?
- ring closure, crude yield [2]: 62.7%

Molecule: H-Ser(Bzl)-Asn-Leu-Ser(Bzl)-Thr(Bzl)-4-CPA(ONp)-OMe?
- ring closure, isolated yield ([1]; the molecule shown is the open-chain precursor, 23-membered ring, p-nitrophenyl ester (from TFA-ONp)/pyridine, 1.33 mM, 50.0 °C, 3 steps): 53.8%

Molecule: H-bAla-Ser(Bzl)-Asn-Leu-Ser(Bzl)-Thr(Bzl)-Asp(ONp)-OEt?
- ring closure, isolated yield ([1]; the molecule shown is the open-chain precursor, 23-membered ring, p-nitrophenyl ester (from TFA-ONp)/pyridine, 4.6 mM, 50.0 °C, 3 steps): 49.5%

Molecule: COC(=O)[C@@H]1CCCCNC(=O)CCC(=O)N[C@@H](COCc2ccccc2)C(=O)N[C@@H](CC(N)=O)C(=O)N[C@@H](CC(C)C)C(=O)N[C@@H](COCc2ccccc2)C(=O)N[C@@H]([C@@H](C)OCc2ccccc2)C(=O)N1 [H-Ser(Bzl)-Asn-Leu-Ser(Bzl)-Thr(Bzl)-Lys(COCH2CH2CO-ONp)-OMe]
- ring closure, isolated yield ([1]; from H-Ser(Bzl)-Asn-Leu-Ser(Bzl)-Thr(Bzl)-Lys(COCH2CH2CO-ONp)-OMe, 26-membered ring, TFA-ONp/pyridine, TFA, pyridine, 2.6 mM, 55.0 °C, 3 steps): 55.5%

Molecule: COC(=O)[C@@H]1CCC(=O)NCCC(=O)N[C@@H](COCc2ccccc2)C(=O)N[C@@H](CC(N)=O)C(=O)N[C@@H](CC(C)C)C(=O)N[C@@H](COCc2ccccc2)C(=O)N[C@@H]([C@@H](C)OCc2ccccc2)C(=O)N1 [H-βAla-Ser(Bzl)-Asn-Leu-Ser(Bzl)-Thr(Bzl)-Glu(ONp)-OMe]
- ring closure, isolated yield ([1]; from H-βAla-Ser(Bzl)-Asn-Leu-Ser(Bzl)-Thr(Bzl)-Glu(ONp)-OMe, 24-membered ring, TFA-ONp/pyridine, TFA, pyridine, 55.0 °C, 3 steps): 68.1%

Molecule: COC(=O)[C@@H]1CSCCCC(=O)N[C@@H](COCc2ccccc2)C(=O)N[C@@H](CC(N)=O)C(=O)N[C@@H](CC(C)C)C(=O)N[C@@H](COCc2ccccc2)C(=O)N[C@@H]([C@@H](C)OCc2ccccc2)C(=O)N1 [H-Ser(Bzl)-Asn-Leu-Ser(Bzl)-Thr(Bzl)-Cpc(ONp)-OMe]
- ring closure, isolated yield ([1]; from H-Ser(Bzl)-Asn-Leu-Ser(Bzl)-Thr(Bzl)-Cpc(ONp)-OMe, 23-membered ring, TFA-ONp/pyridine, TFA, pyridine, 55.0 °C, 3 steps): 55.9%

Molecule: COC(=O)[C@@H]1CCCCNC(=O)CCC(=O)N[C@@H](CC(N)=O)C(=O)N[C@@H](CC(C)C)C(=O)N[C@@H](COCc2ccccc2)C(=O)N[C@@H]([C@@H](C)OCc2ccccc2)C(=O)N1 [-COCH2 CH2 Co-Asn-Leu-Ser(Bzl)-Thr(Bzl)-Lys--OCH3]
- ring closure, isolated yield ([1]; from H-Asn-Leu-Ser(Bzl)-Thr(Bzl)-Lys(COCH2CH2CO-ONp)-OMe, 23-membered ring, TFA-ONp/pyridine, TFA, pyridine, 55.0 °C, 3 steps): 34.9%
